Key:
CCL22 = assay: Example 2: serum chemokine/cytokine levels; format: in vivo, human; details: days 8 and 29 of therapy
Text: (§1) A bone marrow biopsy and aspirate were collected for confirmatory purposes for all subjects who achieved a complete response (CR) or to confirm suspected PD based solely upon declines in the platelet count and/or hemoglobin. Pharmacodynamic assessments, including serum cytokines and protein phosphorylation in circulating CLL cells, occurred before starting therapy and at designated time points thereafter.

[1] = tested on: tumor necrosis factor alpha (TNF-α); assay: Example 2: serum chemokine/cytokine levels; format: in vivo, human; details: days 8 and 29 of therapy
Text: as §1

[2] = tested on: subjects with CLL, FL, lymphoplasmacytoid lymphoma/SLL/marginal zone lymphoma, MCL, or DLBCL; assay: Example 2: phase 2 trial, safety analysis of all treated subjects
Experimental: A phase 2, open-label, single-agent study was completed to evaluate the efficacy, safety, tolerability, and pharmacodynamics of entospletinib in subjects with relapsed or refractory hematologic malignancies.
Treatment with entospletinib was at a dose of 800 mg twice a day over 28-day cycles under fasted conditions. Fasting was defined as no food or liquids other than water for 2 hours pre- and 1 hour post-dose.
Secondary end points included tolerability, objective response rate (ORR), duration of response (DOR), time to response, and lymph node response rate. […] Exploratory end points included plasma drug concentrations and pharmacodynamic biomarkers.
Subjects were allowed to enroll in the study if they had cytopenias due to CLL. Treatment-emergent cytopenias were defined as a cytopenia that worsened in the period from the first dose of study treatment to 30 days after the last dose of study treatment.

SMILES: c1cn2cc(-c3ccc4cn[nH]c4c3)nc(Nc3ccc(N4CCOCC4)cc3)c2n1 [compound of formula I, 6-(1H-indazol-6-yl)-N-(4-morpholinophenyl)imidazo[1,2-a]pyrazin-8-amine]
- Serum levels of CCL22 (CCL22): inhibited
- Serum levels of tumor necrosis factor alpha (TNF-α) [1]: inhibited
- AE leading to study drug discontinuation: fatigue ([2]; N = 145): 3 n
- AE leading to study drug discontinuation: headache ([2]; N = 145): 3 n
- AE leading to study drug discontinuation: increased ALT ([2]; N = 145): 3 n
- AEs resulting in discontinuation, % of all treated subjects ([2]; N = 145): 14.5%
- AEs resulting in dose reduction, % of all treated subjects ([2]; N = 145): 7.6%
- Constipation, Any grade, % ([2]; N = 145): (24.1) %
- Constipation, At least grade 3, % ([2]; N = 145): (1.4) %
- Cough, Any grade, % ([2]; N = 145): (19.3) %
- Cough, At least grade 3, % ([2]; N = 145): (0.7) %
- Decreased appetite, Any grade, % ([2]; N = 145): (24.1) %
- Decreased appetite, At least grade 3, % ([2]; N = 145): (0.7) %
- Diarrhea, Any grade, % ([2]; N = 145): (34.5) %
- Diarrhea, At least grade 3, % ([2]; N = 145): (0.7) %
- Dizziness, Any grade, % ([2]; N = 145): (20.7) %
- Dizziness, At least grade 3, % ([2]; N = 145): (0.7) %
- Fatigue, Any grade, % ([2]; N = 145): (51.7) %
- Fatigue, At least grade 3, % ([2]; N = 145): (6.9) %
- Grade 3 fatigue, % ([2]; N = 145): 6.9%
- Grade 3 fatigue, subjects ([2]; N = 145): 10 subjects
- Headache, Any grade, % ([2]; N = 145): (22.8) %
- Headache, At least grade 3, % ([2]; N = 145): (0.7) %
- Insomnia, Any grade, % ([2]; N = 145): (15.9) %
- Laboratory abnormality: Anemia, Any grade, % ([2]; N = 145): (37.2) %
- Laboratory abnormality: Increased ALT, Any grade, % ([2]; N = 145): (37.2) %
- Laboratory abnormality: Increased ALT, At least grade 3, % ([2]; N = 145): (13.8) %
- Laboratory abnormality: Increased AST, Any grade, % ([2]; N = 145): (33.8) %
- Laboratory abnormality: Increased AST, At least grade 3, % ([2]; N = 145): (12.4) %
- Laboratory abnormality: Neutropenia, Any grade, % ([2]; N = 145): (32.4) %
- Laboratory abnormality: Thrombocytopenia, Any grade, % ([2]; N = 145): (6.9) %
- Laboratory abnormality: Thrombocytopenia, At least grade 3, % ([2]; N = 145): (2.8) %
- Laboratory abnormality: Total bilirubin, Any grade, % ([2]; N = 145): (31.0) %
- Laboratory abnormality: Total bilirubin, At least grade 3, % ([2]; N = 145): (4.1) %
- Nausea, Any grade, % ([2]; N = 145): (40) %
- Nausea, At least grade 3, % ([2]; N = 145): (3.4) %
- Pyrexia, Any grade, % ([2]; N = 145): (21.4) %
- Pyrexia, At least grade 3, % ([2]; N = 145): (2.1) %
- Serious AE: Anemia, % ([2]; N = 145): (2.1) %
- Serious AE: Back pain, % ([2]; N = 145): (2.1) %
- Serious AE: Chest pain, % ([2]; N = 145): (2.1) %
- Serious AE: Dyspnea, % ([2]; N = 145): (3.4) %
- Serious AE: Febrile neutropenia, % ([2]; N = 145): (2.8) %
- Serious AE: Pneumonia, % ([2]; N = 145): (3.4) %
- Serious AE: Pyrexia, % ([2]; N = 145): (2.8) %
- grade 2 rash, % ([2]; N = 145): 1.4%
- grade 3 dyspnea, % ([2]; N = 145): 6.2%
- grade 3 nausea, % ([2]; N = 145): 3.4%
- grade 3 rash, % ([2]; N = 145): 1.4%
- grade 4 rash, % ([2]; N = 145): 0.7%
- subjects with a treatment-emergent AE that led to study drug discontinuation ([2]; N = 145): 15.2%
- subjects with a treatment-emergent, serious AE ([2]; N = 145): 31.0%
- subjects who died while on study, % ([2]; N=145, none attributed by the investigator to entospletinib): 12.4%
- subjects with at least one AE ([2]; all treated subjects N=145): 94.5%
- time to grade 3 or 4 ALT/AST elevation, first quartile ([2]; human, in vivo, 800 mg): 4.1 weeks
- time to grade 3 or 4 ALT/AST elevation, third quartile ([2]; human, in vivo, 800 mg): 6.1 weeks
- subjects with ALT/AST elevation who resumed after interruption without further event, % ([2]; of 21 subjects): 57.1%
- grade 3 or 4 ALT/AST elevations that occurred by 6 weeks ([2]; of 21 subjects with elevations): 10
- Reversible grade 3 or 4 ALT/AST elevations, % ([2]; of 145 subjects): 14.5%
- Reversible grade 3 or 4 ALT/AST elevations, subjects ([2]; of 145 subjects): 21 subjects
- deaths on study due to disease progression ([2]; of eighteen deaths): 13

— patent publication US9974792B2, “Methods for treating cancers” (Gilead Sciences, Inc., priority 2013, dated 2018)
